Measurements as given in the NIST ThermoML archive (doi:10.1021/je060054+).
± gives the expanded uncertainty stated by the source.

test: refractive index (Na D-line) (dimensionless); details: 298.15 K; 101.33 kPa; Liquid; Standard Abbe refractometry

refractive index	SMILES
1.35941 ± 0.00073	CCO [ethanol]
1.36978 ± 0.00072	CCOC(C)=O [ethyl acetate]
1.4077 ± 0.00073	CCCCCO [pentan-1-ol]
1.3325 ± 0.00072	O [water]
